{"source": "patent US6518243B1", "about": "“Desleucyl glycopeptide antibiotics and methods of making same” (Trustees of Princeton University, priority 1999, dated 2003)", "data": [{"system": "E. faecalis (CL 4877)", "assay": "Zone of inhibition screen, 96 well agar array format", "format": "cell-based", "parameters": "scale not given here", "conditions": "zone of inhibition relative to 1 mg/ml p-chlorobiphenylvancomycin", "protocol": "(§1) The antibacterial activity of each of the compounds against the bacterial strains E. faceium (ATCC 49624), S. epidermidis (ATCC 12228), S. aureus (ATCC 29213), E. faecalis (CL 4877) and E. faecalis (ATCC 292121) was tested. Each of the compounds was screened in a 96 will agar array format.", "values": [{"smiles": "CC1OC(OC2C(Oc3c4cc5cc3Oc3ccc(cc3Cl)C(O)C3NC(=O)C(NC(=O)C5NC(=O)C(CC(N)=O)NC(=O)C(NC(=O)C5CCOC5)C(O)c5ccc(c(Cl)c5)O4)c4ccc(O)c(c4)-c4c(O)cc(O)cc4C(C(=O)O)NC3=O)OC(CO)C(O)C2O)CC(C)(NCc2ccc(-c3ccc(Cl)cc3)cc2)C1O", "note": "(centres unmarked) [Compound 317]", "zone score, E. faecalis CL 4877": 2}, {"smiles": "C[C@H]1O[C@H](O[C@H]2[C@H](Oc3c4cc5cc3Oc3ccc(cc3Cl)[C@@H](O)[C@@H](NC(=O)/C=C/c3ccc(Cl)c(Cl)c3)C(=O)N[C@@H](CC(N)=O)C(=O)N[C@H]5C(=O)N[C@H]3C(=O)N[C@H](C(=O)N[C@@H](C(=O)O)c5cc(O)cc(O)c5-c5cc3ccc5O)[C@H](O)c3ccc(c(Cl)c3)O4)O[C@H](CO)[C@@H](O)[C@@H]2O)C[C@@](C)(NCc2ccc(-c3ccc(Cl)cc3)cc2)[C@H]1O", "note": "[Compound 251]", "zone score, E. faecalis CL 4877": 2}]}, {"system": "E. faecalis (CL 4877)", "assay": "Zone of inhibition screen, 96 well agar array format", "format": "cell-based", "parameters": "scale not given here", "conditions": "zone of inhibition relative to 1 mg/ml stock solution of p-chlorobiphenylvancomycin", "protocol": "as §1", "values": [{"smiles": "CC(=O)NC(CC(N)=O)C(=O)NC1C(=O)NC(CC(N)=O)C(=O)NC2C(=O)NC3C(=O)NC(C(=O)NC(C(=O)O)c4cc(O)cc(O)c4-c4cc3ccc4O)C(O)c3ccc(c(Cl)c3)Oc3cc2cc(c3OC2OC(CO)C(O)C(O)C2OC2CC(C)(NCc3ccc(-c4ccc(Cl)cc4)cc3)C(O)C(C)O2)Oc2ccc(cc2Cl)C1O", "note": "(centres unmarked) [Compound 113]", "zone score, E. faecalis CL 4877": 2}, {"smiles": "CC1OC(OC2C(Oc3c4cc5cc3Oc3ccc(cc3Cl)C(O)C(NC(=O)C3OC(O)C(O)C(O)C3O)C(=O)NC(CC(N)=O)C(=O)NC5C(=O)NC3C(=O)NC(C(=O)NC(C(=O)O)c5cc(O)cc(O)c5-c5cc3ccc5O)C(O)c3ccc(c(Cl)c3)O4)OC(CO)C(O)C2O)CC(C)(NCc2ccc(-c3ccc(Cl)cc3)cc2)C1O", "note": "(mixture of isomers) [Compound 147]", "zone score, E. faecalis CL 4877": 2}, {"smiles": "CC1OC(OC2C(Oc3c4cc5cc3Oc3ccc(cc3Cl)C(O)C3NC(=O)C(NC(=O)C5NC(=O)C(CC(N)=O)NC(=O)C(NC(=O)C(N)Cc5c[nH]cn5)C(O)c5ccc(c(Cl)c5)O4)c4ccc(O)c(c4)-c4c(O)cc(O)cc4C(C(=O)O)NC3=O)OC(CO)C(O)C2O)CC(C)(NCc2ccc(-c3ccc(Cl)cc3)cc2)C1O", "note": "(centres unmarked) [Compound 71]", "zone score, E. faecalis CL 4877": 2}, {"smiles": "CC1OC(OC2C(Oc3c4cc5cc3Oc3ccc(cc3Cl)C(O)C3NC(=O)C(NC(=O)C5NC(=O)C(CC(N)=O)NC(=O)C(NC(=O)C(O)CN)C(O)c5ccc(c(Cl)c5)O4)c4ccc(O)c(c4)-c4c(O)cc(O)cc4C(C(=O)O)NC3=O)OC(CO)C(O)C2O)CC(C)(NCc2ccc(-c3ccc(Cl)cc3)cc2)C1O", "note": "(mixture of isomers) [Compound 60]", "zone score, E. faecalis CL 4877": 2}, {"smiles": "CC1OC(OC2C(Oc3c4cc5cc3Oc3ccc(cc3Cl)C(O)C(NC(=O)C3CCC(O)N3C(=O)C3CCCN3C(=O)CN)C(=O)NC(CC(N)=O)C(=O)NC5C(=O)NC3C(=O)NC(C(=O)NC(C(=O)O)c5cc(O)cc(O)c5-c5cc3ccc5O)C(O)c3ccc(c(Cl)c3)O4)OC(CO)C(O)C2O)CC(C)(NCc2ccc(-c3ccc(Cl)cc3)cc2)C1O", "note": "(centres unmarked) [Compound 69]", "zone score, E. faecalis CL 4877": 2}, {"smiles": "CC1OC(OC2C(Oc3c4cc5cc3Oc3ccc(cc3Cl)C(O)C3NC(=O)C(NC(=O)C5NC(=O)C(CC(N)=O)NC(=O)C(NC(=O)C(N)Cc5c[nH]cn5)C(O)c5ccc(c(Cl)c5)O4)c4ccc(O)c(c4)-c4c(O)cc(O)cc4C(C(=O)O)NC3=O)OC(CO)C(O)C2O)CC(C)(NCc2ccc(-c3ccc(Cl)cc3)cc2)C1O", "note": "(centres unmarked) [Compound 58]", "zone score, E. faecalis CL 4877": 2}, {"smiles": "CC1OC(OC2C(Oc3c4cc5cc3Oc3ccc(cc3Cl)C(O)C3NC(=O)C(NC(=O)C5NC(=O)C(CC(N)=O)NC(=O)C(NC(=O)c5cnccn5)C(O)c5ccc(c(Cl)c5)O4)c4ccc(O)c(c4)-c4c(O)cc(O)cc4C(C(=O)O)NC3=O)OC(CO)C(O)C2O)CC(C)(NCc2ccc(-c3ccc(Cl)cc3)cc2)C1O", "note": "(centres unmarked) [Compound 103]", "zone score, E. faecalis CL 4877": 2}, {"smiles": "CC(C)C(NC(=O)CN)C(=O)NC1C(=O)NC(CC(N)=O)C(=O)NC2C(=O)NC3C(=O)NC(C(=O)NC(C(=O)O)c4cc(O)cc(O)c4-c4cc3ccc4O)C(O)c3ccc(c(Cl)c3)Oc3cc2cc(c3OC2OC(CO)C(O)C(O)C2OC2CC(C)(NCc3ccc(-c4ccc(Cl)cc4)cc3)C(O)C(C)O2)Oc2ccc(cc2Cl)C1O", "note": "(centres unmarked) [Compound 70]", "zone score, E. faecalis CL 4877": 2}, {"smiles": "CC1OC(OC2C(Oc3c4cc5cc3Oc3ccc(cc3Cl)[C@@H](O)[C@@H](NC(=O)CNC(=O)CNC(=O)CNC(=O)c3ccccc3)C(=O)N[C@@H](CC(N)=O)C(=O)N[C@H]5C(=O)NC3C(=O)N[C@H](C(=O)N[C@@H](C(=O)O)c5cc(O)cc(O)c5-c5cc3ccc5O)[C@H](O)c3ccc(c(Cl)c3)O4)OC(CO)C(O)C2O)CC(C)(NCc2ccc(-c3ccc(Cl)cc3)cc2)C1O", "note": "(some centres unmarked) [Compound 161]", "zone score, E. faecalis CL 4877": 2}, {"smiles": "CC1OC(OC2C(Oc3c4cc5cc3Oc3ccc(cc3Cl)C(O)C3NC(=O)C(NC(=O)C5NC(=O)C(CC(N)=O)NC(=O)C(NC(=O)C(CC(N)=O)NC(=O)OC(C)(C)C)C(O)c5ccc(c(Cl)c5)O4)c4ccc(O)c(c4)-c4c(O)cc(O)cc4C(C(=O)O)NC3=O)OC(CO)C(O)C2O)CC(C)(NCc2ccc(-c3ccc(Cl)cc3)cc2)C1O", "note": "(centres unmarked) [Compound 133]", "zone score, E. faecalis CL 4877": 2}, {"smiles": "CC1OC(OC2C(Oc3c4cc5cc3Oc3ccc(cc3Cl)[C@@H](O)[C@@H](NC(=O)CS(C)(=O)=O)C(=O)N[C@@H](CC(N)=O)C(=O)N[C@H]5C(=O)NC3C(=O)N[C@H](C(=O)N[C@@H](C(=O)O)c5cc(O)cc(O)c5-c5cc3ccc5O)[C@H](O)c3ccc(c(Cl)c3)O4)OC(CO)C(O)C2O)CC(C)(NCc2ccc(-c3ccc(Cl)cc3)cc2)C1O", "note": "(some centres unmarked) [Compound 171]", "zone score, E. faecalis CL 4877": 2}, {"smiles": "CC1OC(OC2C(Oc3c4cc5cc3Oc3ccc(cc3Cl)[C@@H](O)[C@@H](NC(=O)[C@@H]3CCC(=O)N3)C(=O)N[C@@H](CC(N)=O)C(=O)N[C@H]5C(=O)NC3C(=O)N[C@H](C(=O)N[C@@H](C(=O)O)c5cc(O)cc(O)c5-c5cc3ccc5O)[C@H](O)c3ccc(c(Cl)c3)O4)OC(CO)C(O)C2O)CC(C)(NCc2ccc(-c3ccc(Cl)cc3)cc2)C1O", "note": "(some centres unmarked) [Compound 169]", "zone score, E. faecalis CL 4877": 2}, {"smiles": "CC1OC(OC2C(Oc3c4cc5cc3Oc3ccc(cc3Cl)C(O)C3NC(=O)C(NC(=O)C5NC(=O)C(CC(N)=O)NC(=O)C(NC(=O)C5CC(=O)N5)C(O)c5ccc(c(Cl)c5)O4)c4ccc(O)c(c4)-c4c(O)cc(O)cc4C(C(=O)O)NC3=O)OC(CO)C(O)C2O)CC(C)(NCc2ccc(-c3ccc(Cl)cc3)cc2)C1O", "note": "(centres unmarked) [Compound 96]", "zone score, E. faecalis CL 4877": 2}, {"smiles": "COc1ccc(C(SC[C@H](N)C(=O)N[C@H]2C(=O)N[C@@H](CC(N)=O)C(=O)N[C@H]3C(=O)N[C@H]4C(=O)N[C@H](C(=O)N[C@@H](C(=O)O)c5cc(O)cc(O)c5-c5cc4ccc5O)[C@H](O)c4ccc(c(Cl)c4)Oc4cc3cc(c4O[C@@H]3O[C@H](CO)[C@@H](O)[C@H](O)[C@H]3O[C@@H]3C[C@@](C)(NCc4ccc(-c5ccc(Cl)cc5)cc4)[C@@H](O)[C@@H](C)O3)Oc3ccc(cc3Cl)[C@H]2O)(c2ccccc2)c2ccccc2)cc1", "note": "[Compound 6]", "zone score, E. faecalis CL 4877": 2}, {"smiles": "CC1OC(OC2C(Oc3c4cc5cc3Oc3ccc(cc3Cl)C(O)C3NC(=O)C(NC(=O)C5NC(=O)C(CC(N)=O)NC(=O)C(NC(=O)c5nccnc5N)C(O)c5ccc(c(Cl)c5)O4)c4ccc(O)c(c4)-c4c(O)cc(O)cc4C(C(=O)O)NC3=O)OC(CO)C(O)C2O)CC(C)(NCc2ccc(-c3ccc(Cl)cc3)cc2)C1O", "note": "(centres unmarked) [Compound 105]", "zone score, E. faecalis CL 4877": 2}, {"smiles": "CC1OC(OC2C(Oc3c4cc5cc3Oc3ccc(cc3Cl)C(O)C3NC(=O)C(NC(=O)C5NC(=O)C(CC(N)=O)NC(=O)C(NC(=O)CC5OCC6CN7CC8C9=CC(=O)C(=O)C([N+](=O)[O-])=C9NC8C5C6CC7C)C(O)c5ccc(c(Cl)c5)O4)c4ccc(O)c(c4)-c4c(O)cc(O)cc4C(C(=O)O)NC3=O)OC(CO)C(O)C2O)CC(C)(NCc2ccc(-c3ccc(Cl)cc3)cc2)C1O", "note": "(centres unmarked) [Compound 144]", "zone score, E. faecalis CL 4877": 2}, {"smiles": "CC1OC(OC2C(Oc3c4cc5cc3Oc3ccc(cc3Cl)[C@@H](O)[C@@H](NC(=O)[C@H](O)CCCNC(=N)N)C(=O)N[C@@H](CC(N)=O)C(=O)N[C@H]5C(=O)NC3C(=O)N[C@H](C(=O)N[C@@H](C(=O)O)c5cc(O)cc(O)c5-c5cc3ccc5O)[C@H](O)c3ccc(c(Cl)c3)O4)OC(CO)C(O)C2O)CC(C)(NCc2ccc(-c3ccc(Cl)cc3)cc2)C1O", "note": "(some centres unmarked) [Compound 165]", "zone score, E. faecalis CL 4877": 2}, {"smiles": "CC1OC(OC2C(Oc3c4cc5cc3Oc3ccc(cc3Cl)[C@@H](O)[C@@H](NC(=O)[C@H]3CC(=O)NC(=O)N3)C(=O)N[C@@H](CC(N)=O)C(=O)N[C@H]5C(=O)NC3C(=O)N[C@H](C(=O)N[C@@H](C(=O)O)c5cc(O)cc(O)c5-c5cc3ccc5O)[C@H](O)c3ccc(c(Cl)c3)O4)OC(CO)C(O)C2O)CC(C)(NCc2ccc(-c3ccc(Cl)cc3)cc2)C1O", "note": "(some centres unmarked) [Compound 168]", "zone score, E. faecalis CL 4877": 2}, {"smiles": "CC1OC(OC2C(Oc3c4cc5cc3Oc3ccc(cc3Cl)C(O)C(NC(=O)C3OC(O)C(O)C(O)C3O)C(=O)NC(CC(N)=O)C(=O)NC5C(=O)NC3C(=O)NC(C(=O)NC(C(=O)O)c5cc(O)cc(O)c5-c5cc3ccc5O)C(O)c3ccc(c(Cl)c3)O4)OC(CO)C(O)C2O)CC(C)(NCc2ccc(-c3ccc(Cl)cc3)cc2)C1O", "note": "(mixture of isomers) [Compound 148]", "zone score, E. faecalis CL 4877": 2}, {"smiles": "CC(=O)NCCCCC(NC(C)=O)C(=O)NC1C(=O)NC(CC(N)=O)C(=O)NC2C(=O)NC3C(=O)NC(C(=O)NC(C(=O)O)c4cc(O)cc(O)c4-c4cc3ccc4O)C(O)c3ccc(c(Cl)c3)Oc3cc2cc(c3OC2OC(CO)C(O)C(O)C2OC2CC(C)(NCc3ccc(-c4ccc(Cl)cc4)cc3)C(O)C(C)O2)Oc2ccc(cc2Cl)C1O", "note": "(mixture of isomers) [Compound 114]", "zone score, E. faecalis CL 4877": 2}, {"smiles": "CC(=O)NC(C)C(=O)NC1C(=O)NC(CC(N)=O)C(=O)NC2C(=O)NC3C(=O)NC(C(=O)NC(C(=O)O)c4cc(O)cc(O)c4-c4cc3ccc4O)C(O)c3ccc(c(Cl)c3)Oc3cc2cc(c3OC2OC(CO)C(O)C(O)C2OC2CC(C)(NCc3ccc(-c4ccc(Cl)cc4)cc3)C(O)C(C)O2)Oc2ccc(cc2Cl)C1O", "note": "(mixture of isomers) [Compound 174]", "zone score, E. faecalis CL 4877": 2}]}]}
